# Source: ChEMBL document CHEMBL3885861, “Open TG-GATES”
# Species: Rattus norvegicus
# Test: Open TG-GATES - Regimen: Daily Repeat
# Format: toxicity, organism-based, Sprague-Dawley
# Parameters: regimen Daily Repeat, gender Male, age 6 weeks
# Settings: in vivo, po, 100 mg/kg, route gavage, dose level Low; for APTT / Bas / Eos / Fbg / Hb / Ht / Lym / MCH / MCHC / MCV / Mono / Neu / PT / Plat / RBC / Ret / WBC: tissue Blood; for KIDNEY_L / KIDNEY_R / KIDNEY_TOTAL: tissue Kidney; for LIVER: tissue Liver; for A/G / ALP / ALT / AST / BUN / CRE / Ca / Cl / DBIL / GLC / IP / K / LDH / Na / PL / RALB / TBIL / TC / TG / TP / gamma-GTP: tissue Plasma
smiles,measurement,setting,value
C[C@H]1O[C@H](O[C@H]2[C@H](O)[C@@H](O)[C@@H](O[C@H]3[C@H](O)[C@@H](O)C(O)O[C@@H]3CO)O[C@@H]2CO)[C@H](O)[C@@H](O)[C@@H]1N[C@H]1C=C(CO)[C@@H](O)[C@H](O)[C@H]1O (some centres not stated) [ACARBOSE],TERMINAL_BW,"72 h, time 3 day",233.2 g
same,APTT,"72 h, time 3 day",17.1 s
same,Bas,"72 h, time 3 day",0%
same,Eos,"72 h, time 3 day",1%
same,Fbg,"72 h, time 3 day",279.2 mg/dL
same,Hb,"72 h, time 3 day",13.2 g/dL
same,Ht,"72 h, time 3 day",39.4%
same,Lym,"72 h, time 3 day",79.4%
same,MCH,"72 h, time 3 day",20.4 pg
same,MCHC,"72 h, time 3 day",33.5%
same,MCV,"72 h, time 3 day",61 fL
same,Mono,"72 h, time 3 day",2.6%
same,Neu,"72 h, time 3 day",15.4%
same,PT,"72 h, time 3 day",13.3 s
same,Plat,"72 h, time 3 day",126 x10_4/uL
same,RBC,"72 h, time 3 day",646.8 x10_4/ul
same,Ret,"72 h, time 3 day",6.7%
same,WBC,"72 h, time 3 day",97.6 x10_2/uL
same,KIDNEY_L,"72 h, time 3 day",1 g
same,KIDNEY_R,"72 h, time 3 day",1 g
same,KIDNEY_TOTAL,"72 h, time 3 day",2.1 g
same,LIVER,"72 h, time 3 day",11.3 g
same,A/G,"72 h, time 3 day",0.9
same,ALP,"72 h, time 3 day",1544.2 IU/L
same,ALT,"72 h, time 3 day",40.2 IU/L
same,AST,"72 h, time 3 day",70.2 IU/L
same,BUN,"72 h, time 3 day",13.8 mg/dL
same,CRE,"72 h, time 3 day",0.2 mg/dL
same,Ca,"72 h, time 3 day",10.7 mg/dL
same,Cl,"72 h, time 3 day",103.8 meq/L
same,DBIL,"72 h, time 3 day",0.01 mg/dL
same,GLC,"72 h, time 3 day",182 mg/dL
same,IP,"72 h, time 3 day",7.5 mg/dL
same,K,"72 h, time 3 day",3.9 meq/L
same,LDH,"72 h, time 3 day",84.2 IU/L
same,Na,"72 h, time 3 day",140.6 meq/L
same,PL,"72 h, time 3 day",142.4 mg/dL
same,RALB,"72 h, time 3 day",2.6 g/dL
same,TBIL,"72 h, time 3 day",0.056 mg/dL
same,TC,"72 h, time 3 day",72.2 mg/dL
same,TG,"72 h, time 3 day",101.8 mg/dL
same,TP,"72 h, time 3 day",5.6 g/dL
same,gamma-GTP,"72 h, time 3 day",1 IU/L
same,TERMINAL_BW,"[…], time 7 day",267.4 g
same,TERMINAL_BW,"[…], time 14 day",335.4 g
same,TERMINAL_BW,"[…], time 28 day",407.8 g
same,APTT,"[…], time 7 day",17.6 s
same,Bas,"[…], time 7 day",0%
same,Eos,"[…], time 7 day",1%
same,Fbg,"[…], time 7 day",291.8 mg/dL
same,Hb,"[…], time 7 day",13.8 g/dL
same,Ht,"[…], time 7 day",40.9%
same,Lym,"[…], time 7 day",73.6%
same,MCH,"[…], time 7 day",21.2 pg
same,MCHC,"[…], time 7 day",33.6%
same,MCV,"[…], time 7 day",63 fL
same,Mono,"[…], time 7 day",3%
same,Neu,"[…], time 7 day",21.6%
same,PT,"[…], time 7 day",12.9 s
same,Plat,"[…], time 7 day",130.6 x10_4/uL
same,RBC,"[…], time 7 day",649.8 x10_4/ul
same,Ret,"[…], time 7 day",6.1%
same,WBC,"[…], time 7 day",81.1 x10_2/uL
same,APTT,"[…], time 14 day",17.6 s
same,Bas,"[…], time 14 day",0%
same,Eos,"[…], time 14 day",1.4%
same,Fbg,"[…], time 14 day",290.2 mg/dL
same,Hb,"[…], time 14 day",14.9 g/dL
same,Ht,"[…], time 14 day",44.1%
same,Lym,"[…], time 14 day",80.6%
same,MCH,"[…], time 14 day",20.7 pg
same,MCHC,"[…], time 14 day",33.7%
same,MCV,"[…], time 14 day",61.4 fL
same,Mono,"[…], time 14 day",2.6%
same,Neu,"[…], time 14 day",15%
same,PT,"[…], time 14 day",13.2 s
same,Plat,"[…], time 14 day",126.6 x10_4/uL
same,RBC,"[…], time 14 day",719.2 x10_4/ul
same,Ret,"[…], time 14 day",4.4%
same,WBC,"[…], time 14 day",98.7 x10_2/uL
same,APTT,"[…], time 28 day",18.7 s
same,Bas,"[…], time 28 day",0%
same,Eos,"[…], time 28 day",1%
same,Fbg,"[…], time 28 day",301 mg/dL
same,Hb,"[…], time 28 day",15.3 g/dL
same,Ht,"[…], time 28 day",44%
same,Lym,"[…], time 28 day",78.8%
same,MCH,"[…], time 28 day",19.6 pg
same,MCHC,"[…], time 28 day",34.7%
same,MCV,"[…], time 28 day",56.4 fL
same,Mono,"[…], time 28 day",1.4%
same,Neu,"[…], time 28 day",17.4%
same,PT,"[…], time 28 day",13.3 s
same,Plat,"[…], time 28 day",103.6 x10_4/uL
same,RBC,"[…], time 28 day",780.8 x10_4/ul
same,Ret,"[…], time 28 day",2.4%
same,WBC,"[…], time 28 day",101.5 x10_2/uL
same,KIDNEY_L,"[…], time 7 day",1.1 g
same,KIDNEY_R,"[…], time 7 day",1.1 g
same,KIDNEY_TOTAL,"[…], time 7 day",2.2 g
same,KIDNEY_L,"[…], time 14 day",1.3 g
same,KIDNEY_R,"[…], time 14 day",1.3 g
same,KIDNEY_TOTAL,"[…], time 14 day",2.6 g
same,KIDNEY_L,"[…], time 28 day",1.5 g
same,KIDNEY_R,"[…], time 28 day",1.4 g
same,KIDNEY_TOTAL,"[…], time 28 day",2.9 g
same,LIVER,"[…], time 7 day",12.2 g
same,LIVER,"[…], time 14 day",15.3 g
same,LIVER,"[…], time 28 day",16.8 g
same,A/G,"[…], time 7 day",0.9
same,ALP,"[…], time 7 day",1544.4 IU/L
same,ALT,"[…], time 7 day",44 IU/L
same,AST,"[…], time 7 day",73.2 IU/L
same,BUN,"[…], time 7 day",15.8 mg/dL
same,CRE,"[…], time 7 day",0.2 mg/dL
same,Ca,"[…], time 7 day",10.9 mg/dL
same,Cl,"[…], time 7 day",104.2 meq/L
same,DBIL,"[…], time 7 day",0.008 mg/dL
same,GLC,"[…], time 7 day",176.4 mg/dL
same,IP,"[…], time 7 day",7.4 mg/dL
same,K,"[…], time 7 day",3.8 meq/L
same,LDH,"[…], time 7 day",76.8 IU/L
same,Na,"[…], time 7 day",141.8 meq/L
same,PL,"[…], time 7 day",148.4 mg/dL
same,RALB,"[…], time 7 day",2.6 g/dL
same,TBIL,"[…], time 7 day",0.052 mg/dL
same,TC,"[…], time 7 day",74.6 mg/dL
same,TG,"[…], time 7 day",103.6 mg/dL
same,TP,"[…], time 7 day",5.7 g/dL
same,gamma-GTP,"[…], time 7 day",0.8 IU/L
same,A/G,"[…], time 14 day",0.8
same,ALP,"[…], time 14 day",1438.4 IU/L
same,ALT,"[…], time 14 day",36.2 IU/L
same,AST,"[…], time 14 day",62.8 IU/L
same,BUN,"[…], time 14 day",16 mg/dL
same,CRE,"[…], time 14 day",0.2 mg/dL
same,Ca,"[…], time 14 day",10.9 mg/dL
same,Cl,"[…], time 14 day",104.2 meq/L
same,DBIL,"[…], time 14 day",0.01 mg/dL
same,GLC,"[…], time 14 day",182 mg/dL
same,IP,"[…], time 14 day",6.7 mg/dL
same,K,"[…], time 14 day",4.2 meq/L
same,LDH,"[…], time 14 day",119.4 IU/L
same,Na,"[…], time 14 day",141.8 meq/L
same,PL,"[…], time 14 day",153.4 mg/dL
same,RALB,"[…], time 14 day",2.7 g/dL
same,TBIL,"[…], time 14 day",0.052 mg/dL
same,TC,"[…], time 14 day",75.4 mg/dL
same,TG,"[…], time 14 day",146.8 mg/dL
same,TP,"[…], time 14 day",6 g/dL
same,gamma-GTP,"[…], time 14 day",1 IU/L
same,A/G,"[…], time 28 day",0.8
same,ALP,"[…], time 28 day",1221 IU/L
same,ALT,"[…], time 28 day",36.8 IU/L
same,AST,"[…], time 28 day",66.2 IU/L
same,BUN,"[…], time 28 day",17 mg/dL
same,CRE,"[…], time 28 day",0.2 mg/dL
same,Ca,"[…], time 28 day",10.8 mg/dL
same,Cl,"[…], time 28 day",104.8 meq/L
same,DBIL,"[…], time 28 day",0.018 mg/dL
same,GLC,"[…], time 28 day",179.8 mg/dL
same,IP,"[…], time 28 day",6.4 mg/dL
same,K,"[…], time 28 day",4.1 meq/L
same,LDH,"[…], time 28 day",79.6 IU/L
same,Na,"[…], time 28 day",142.4 meq/L
same,PL,"[…], time 28 day",149.2 mg/dL
same,RALB,"[…], time 28 day",2.8 g/dL
same,TBIL,"[…], time 28 day",0.056 mg/dL
same,TC,"[…], time 28 day",70 mg/dL
same,TG,"[…], time 28 day",156 mg/dL
same,TP,"[…], time 28 day",6.2 g/dL
same,gamma-GTP,"[…], time 28 day",1 IU/L
